{"source": "patent US20230390312A1", "about": "“NOVEL THERAPEUTIC COMBINATIONS COMPRISING DERIVATIVES OF OXAZAPHOSPHORINES FOR THE TREATMENT OF CANCER” (INSTITUT GUSTAVE ROUSSY, priority 2019, published 2023)", "key": {"[1]": {"tested_on": "MCA205 fibrosarcoma tumor", "assay_type": "in vivo, mouse", "conditions": "single i.p.", "protocol": "7-8 weeks-old female C57BL/6 mice (mean body weight, 20 g) were purchased from Harlan Laboratories (Gannat, France). Animals were used in pathogen-free conditions. MCA205 fibrosarcoma tumor cell line (syngenic from C57Bl/6 mice) was kindly provided by Dr Yamazaki Takahiro (INSERM U1015, Gustave Roussy, Villejuif, France). They were harvested at 37° C. under 5% CO2 in Gibco™ RPMI 1640 medium (Paisley, UK) supplemented with 10% Fetal Bovine Serum (Paisley, UK) and 2 mM L-glutamine (Invitrogen, USA). All animal experiments were carried out in compliance with French and European laws and regulations and by the CEEA26 Ethic committee and the ministry of national education, higher education and research and carried out under conditions established by the European Community (Directive 2010/63/2015-038).\n(§1) 8·10^5 tumor cells were inoculated subcutaneously (s.c.) in the right flank of C57Bl/6 mice on DO.\nRegarding study for combination between chemotherapy (G-IFO) and anti-PD1 mAbs, mice received G-IFO or vehicle on D9 then 200 μg/mouse i.p. injections of anti-PD1 mAbs (clone RMP1-14) or its isotype control Rat IgG2a (clone 2A3) on D12, D15 and D19. Tumor volume was followed-up three times a week by measuring the length and width using a caliper. In order to normalize tumor measurements for each day VTDx to VTDi (VTDx/VTDi) ratio was calculated; VTDi corresponds to the tumor volume the day of treatment initiation and VTDx corresponds to the tumor volume on each measurement day for each mouse."}, "[2]": {"tested_on": "IFNγ, IL-17A and IL-6 secretion", "test": "TCR-driven cytokine release by splenocytes of treated naive mice", "assay_type": "in vivo, mouse", "conditions": "CPA 100 mg/kg, IFO 100, 150 and 200 mg/kg, CD3ε+CD28 stimulation", "protocol": "(§2) Female C57BL/6 mice of 7 to 8 weeks were randomly assigned to the different treatment groups. […] Both drugs were dissolved in a solution of NaCl 0.9%. […] Seven days post treatment, the mice were sacrificed, spleens and tumors were collected. After lysis of red blood cells with ammonium chloride splenic viable cells were quantified with Trypan Blue with Vi-CELL XR (Beckman Coulter).\n(§3) From spleen cell suspension, a total of 2·10^5 cells per well were incubated in 96 well Nunc MaxiSorp® plates (eBioscience) precoated with anti-CD3ε mAbs (clone 145-2C11, 10 μg/mL); eBioscience) and/or anti-CD28 mAbs (clone 37.57, 2 μg/mL; BD Pharmingen). The supernatants were assayed after 48 hours of incubation at 37° C. under 5% CO2 using Cytokine concentrations were quantified in the supernatant using a Bio-Plex™ Mouse Cytokine Standard 23-Plex, Group I Assay (bio rad, M60009RDPD). The panel was comprised of the following cytokines and chemokines: eotaxin, Granulocyte-Colony Stimulating Factor (G-CSF), Granulocyte-Macrophage-Colony Stimulating Factor (GM-CSF), interferon gamma (IFNγ), interleukin (IL)-1α (IL-1α), IL-1β, IL-2, IL-3, IL-4, IL-5, IL-6, IL-9, IL-10, IL-12p40, IL-12p70, IL-13, IL-17A, Keratinocyte Chemoattractant (KC), Macrophage Chemotactic Protein-1 (MCP-1), Macrophage Inflammatory Protein (MIP)-1alpha (MIP-1α), MIP-1β, Regulated on Activation Normal T cell Expressed and Secreted (RANTES) and Tumor Necrosis Factor-alpha (TNF-α). Results were analyzed using Bio-Plex Manager Software V 6.1 (Bio-Rad Laboratories, Hercules, CA, USA). […] These three cytokines were then quantified using mouse IL-17A ELISA Ready-SET-Go® (eBiosciences), Mouse IFNy ELISA Set (BD Biosciences) and Mouse IL-6 ELISA Set (BD Biosciences)."}, "[3]": {"tested_on": "B cells", "assay_type": "in vivo, mouse", "conditions": "for B cell depletion in the spleen: FIG. 4, IFO 150 mg/kg, CPA 100 mg/kg, G-IFO eq. 100 or 150 mg/kg, single i.p., 7 days", "protocol": "as §2\n(§4) Briefly, tumor dissociation was done with GentleMACS™ Dissociator after adding ADNase (260913, Millipore) and […] (5401127001, Sigma) to weighed and cut tumors. Tumor cells were incubated for 40 min at 37° C. under stirring and then quantified with Trypan Blue with Vi-CELL XR (Beckman Coulter). Before staining, Fcγ-receptors were blocked for 15 min at 4° C. using anti-CD16/32 functional grade purified antibodies (eBioscience, Paris, France). Cells were incubated for 30 min at 4° C. with antibodies for cell surface staining. For FoxP3 staining, cells were fixed and permeabilized after cell surface staining according to the FoxP3 kit protocol (eBioscience, Paris, France). Samples were acquired on 10-colors Gallios cytometer (Beckman Coulter, Villepinte, France). Analyses were performed using Kaluza software 1.3 (Beckman Coulter). Two different panels were used to identify immune cells. First leucocytes were identified by the use of FITC-conjugated anti-mouse CD45. T and B lymphocytes were identified using APC-Cy7-conjugated anti-mouse CD3 and BV421-conjugated anti-mouse CD19 respectively. CD4^+ and CD8^+ T cells were separated using PE-Cy7-conjugated anti-mouse CD4 and APC-R700-conjugated anti-mouse CD8a staining among CD3 positive cells, respectively. Treg cells were stained using APC-conjugated anti-mouse FoxP3 staining among CD3^+CD4^+ T cells (Table 1)."}, "[4]": {"tested_on": "IFNγ, IL-17A and IL-6 secretion", "test": "TCR-driven cytokine release by splenocytes of treated MCA205 tumor-bearing mice", "assay_type": "in vivo, mouse", "protocol": "(§5) Female C57BL/6 mice of 7 to 8 weeks were randomly assigned to the different treatment groups. […] Both drugs were dissolved in a solution of NaCl 0.9%. […] The administrations were performed by a single i.p. injection with a volume of 20 mL/kg or 10 mL/kg when adding G-IFO groups. Seven days post treatment, the mice were sacrificed, spleens and tumors were collected. After lysis of red blood cells with ammonium chloride splenic viable cells were quantified with Trypan Blue with Vi-CELL XR (Beckman Coulter).\nas §3"}, "[5]": {"tested_on": "T cells", "assay_type": "in vivo, mouse", "conditions": "for T cell counts: tumor-bearing mice", "protocol": "as §5, §4"}, "[6]": {"tested_on": "large panel of tumor cells", "conditions": "in vitro; cited from earlier work"}, "[7]": {"tested_on": "rhabdomyosarcoma", "conditions": "murine model of rhabdomyosarcoma; cited from earlier work"}, "[8]": {"conditions": "mice, intravenous route; cited from earlier work"}, "[9]": {"tested_on": "MCA205 fibrosarcoma tumor", "test": "Antitumor activity of IFO in MCA205-bearing mice depleted in CD4+ and/or CD8+ T cells", "assay_type": "in vivo, mouse", "from_the_text": "as §1"}, "[10]": {"tested_on": "advanced refractory soft tissue", "conditions": "high dose, cumulative dose of 12 000 mg/m2; cited from earlier work"}, "[11]": {"tested_on": "osteosarcoma", "conditions": "high dose, cumulative dose of 14 000 mg/m^2, cited from earlier work"}, "[12]": {"tested_on": "several cancerous cells", "conditions": "cited from earlier work"}, "[13]": {"conditions": "IFO 100 and 150 mg/kg, CD3ε and CD28 co-stimulation"}}, "note": "“Also recorded” adds a separate entry of the source. Read-outs that look alike come from different tables or passages of the source."}
{"smiles": "O=P1(N(CCCl)CCCl)NCCCO1", "note": "(stereo not drawn) [CPA, Cyclophosphamide]", "values": [{"measurement": "tumor growth", "setting": "[1]; CPA 100 mg/kg", "result": "Significant reduction of the tumor growth"}, {"measurement": "TCR-driven IFNγ", "setting": "[2]", "result": "significantly increased"}, {"measurement": "TCR-driven IL-6", "setting": "[2]", "result": "significantly increased"}, {"measurement": "TCR-driven IL-17A", "setting": "[2]", "result": "significantly increased"}, {"measurement": "B cell depletion in the spleen", "setting": "[3]", "result": "Dose-dependent B cell depletion"}]}
{"smiles": "CC(C)=CCC/C(C)=C/COC1CCOP(=O)(NCCCl)N1CCCl", "note": "(stereo not drawn) [G-IFO, geranyloxy-Ifosfamide]", "values": [{"measurement": "tumor growth", "setting": "[1]; G-IFO eq. 100 mg/kg", "result": "able to delay tumor growth; also recorded: showed an antitumoral activity; also recorded: delayed tumor-growth"}, {"measurement": "tumor growth delay compared to CPA 100 mg/kg", "setting": "[1]; G-IFO eq. 100 mg/kg, FIG. 2D", "result": "lower tumor growth delay"}, {"measurement": "IFNγ secretion (Th1 polarization)", "setting": "[4]; G-IFO eq. 100 mg/kg", "result": "favored IFNγ secretion; also recorded: increase"}, {"measurement": "IL-6 secretion", "setting": "[4]; G-IFO eq. 100 mg/kg", "result": "increase"}, {"measurement": "IFNγ secretion", "setting": "[4]; G-IFO eq. 150 mg/kg", "result": "poor secretion of IFNγ"}, {"measurement": "IL-6 secretion", "setting": "[4]; G-IFO eq. 150 mg/kg", "result": "high levels of IL-6"}, {"measurement": "IL-17 secretion", "setting": "[4]; escalating doses of G-IFO", "result": "No significant IL-17 secretion"}, {"measurement": "T cell depletion", "setting": "[5]; G-IFO eq. 150 mg/kg", "result": "induced T cell depletion"}, {"measurement": "B cell depletion in the spleen", "setting": "[3]", "result": "Dose-dependent B cell depletion"}, {"measurement": "B cells population", "setting": "[3]; G-IFO low dose eq. 100 mg/kg, i.p.", "result": "very affected"}, {"measurement": "cytotoxicity", "setting": "[6]", "result": "cytotoxic"}, {"measurement": "tumor growth", "setting": "[7]", "result": "prevent tumor growth"}, {"measurement": "conversion into 4-hydroxy-ifosfamide metabolite", "setting": "[8]", "result": "rapidly converted"}]}
{"smiles": "O=P1(NCCCl)OCCCN1CCCl", "note": "(stereo not drawn) [IFO, ifosfamide]", "values": [{"measurement": "tumor growth", "setting": "[1]; IFO 100, 150, 200 and 300 mg/kg", "result": "delay of tumor growth"}, {"measurement": "TCR-driven IFNγ", "setting": "[2]", "result": "significant increase"}, {"measurement": "TCR-driven IL-6", "setting": "[2]", "result": "significant increase"}, {"measurement": "TCR-driven IL-17A", "setting": "[2]", "result": "significant increase"}, {"measurement": "TCR-driven IL-6 compared to CPA 100 mg/kg", "setting": "[4]; IFO 150 mg/kg", "result": "more"}, {"measurement": "TCR-driven IL-17 compared to CPA 100 mg/kg", "setting": "[4]; IFO 150 mg/kg", "result": "more"}, {"measurement": "TCR-driven IFNγ", "setting": "[4]; [13]", "result": "significant secretion"}, {"measurement": "TCR-driven IL-6", "setting": "[4]; [13]", "result": "significant secretion"}, {"measurement": "TCR-driven IL-17A", "setting": "[4]; [13]", "result": "significant secretion"}, {"measurement": "TCR-driven IFNγ", "setting": "[4]; IFO 200 and 300 mg/kg", "result": "failed to induce"}, {"measurement": "TCR-driven IL-6", "setting": "[4]; IFO 200 and 300 mg/kg", "result": "remained highly secreted"}, {"measurement": "TCR-driven IL-17A", "setting": "[4]; IFO 200 and 300 mg/kg", "result": "failed to induce"}, {"measurement": "T cell counts", "setting": "[5]; IFO 100 and 150 mg/kg", "result": "no T cell counts decrease"}, {"measurement": "T cell counts", "setting": "[5]; IFO higher doses (200 and 300 mg/kg)", "result": "T cell counts diminution"}, {"measurement": "B cell depletion in the spleen", "setting": "[3]", "result": "Dose-dependent B cell depletion"}, {"measurement": "tumor growth", "setting": "[9]; IFO 150 mg/kg single i.p., non-depleted mice", "result": "Significant reduction of the tumor growth"}, {"measurement": "antitumor effect", "setting": "[9]; IFO 150 mg/kg, CD4+ T cells and CD8+ T cells depleted mice", "result": "decrease of the antitumor effect"}, {"measurement": "antitumor efficacy", "setting": "[9]; IFO 150 mg/kg, mice depleted with both CD4+ and CD8+ T cells", "result": "completely abolished"}, {"measurement": "efficacy", "setting": "[10]", "result": "effective"}, {"measurement": "toxicities", "setting": "[10]", "result": "major toxicities"}, {"measurement": "improved disease-free survival", "setting": "[11]; children previously treated with conventional chemotherapy", "result": "30 % of patients"}, {"measurement": "severe nephrotoxicity, share of patients", "setting": "[11]", "result": "a quarter"}]}
{"smiles": "CC(C)=CCC/C(C)=C/CC/C(C)=C/CC/C=C(\\C)CC/C=C(\\C)CCCOC1CCOP(=O)(NCCCl)N1CCCl", "note": "(stereo not drawn) [SQ-IFO]", "values": [{"measurement": "cytotoxicity", "setting": "[12]", "result": "display cytotoxicity"}]}
{"smiles": "CC(C)=CCC/C(C)=C/CC/C(C)=C/CC/C=C(\\C)CC/C=C(\\C)CCC(=O)NCCSC1CCOP(=O)(NCCCl)N1CCCl", "note": "(stereo not drawn) [SQ-thio-IFO]", "values": [{"measurement": "cytotoxicity", "setting": "[12]", "result": "display cytotoxicity"}]}
